Series [1] is filed under the species Rattus norvegicus. It counts as functional. Conditions: dose 30 mg/kg; route oral.
Series [2] is filed under the species Rattus norvegicus. Format: functional. Conditions: dose 100 mg/kg; route oral.
The species entered for series [3] is Rattus norvegicus. It counts as functional. Conditions: dose 30 mg/kg; route oral. The source holds these as a separate data set.
Series [4] deals with T1, Cytochrome P450 11B2, mitochondrial (Rattus norvegicus, UniProt P30099).
T1 sequence (P30099 whole entry): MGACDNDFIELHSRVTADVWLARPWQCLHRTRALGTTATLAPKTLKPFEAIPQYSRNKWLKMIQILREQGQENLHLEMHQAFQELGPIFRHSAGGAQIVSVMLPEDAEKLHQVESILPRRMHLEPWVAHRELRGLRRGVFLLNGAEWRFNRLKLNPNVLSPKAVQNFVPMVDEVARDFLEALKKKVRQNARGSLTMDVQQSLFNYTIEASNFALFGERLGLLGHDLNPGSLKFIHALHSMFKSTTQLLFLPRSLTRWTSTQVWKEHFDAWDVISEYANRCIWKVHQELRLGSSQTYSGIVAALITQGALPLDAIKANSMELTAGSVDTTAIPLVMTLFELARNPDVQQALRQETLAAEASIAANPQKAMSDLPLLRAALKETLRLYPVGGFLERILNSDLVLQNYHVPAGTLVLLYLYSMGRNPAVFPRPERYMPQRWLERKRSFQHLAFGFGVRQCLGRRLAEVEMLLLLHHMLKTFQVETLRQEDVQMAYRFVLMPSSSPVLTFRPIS

The species named for series [5] is Rattus norvegicus. It counts as functional. Particulars: dose 100 mg/kg; route oral. This is another data set of the same source.
The species entered for series [6] is Rattus norvegicus. Format: functional.
Series [7] is filed under the species Rattus norvegicus. It counts as functional. Particulars: dose 30 mg/kg; route oral. The source holds these as a separate data set.
The species named for series [8] is Rattus norvegicus. Format: functional. Particulars: dose 100 mg/kg.
The species named for series [9] is Rattus norvegicus. Format: functional. Conditions: dose 30 mg/kg; route oral. This is another data set of the same source.
The target of series [10] is T2, Steroid 17-alpha-hydroxylase/17,20 lyase (Homo sapiens, UniProt P05093).
T2 sequence (P05093 whole entry): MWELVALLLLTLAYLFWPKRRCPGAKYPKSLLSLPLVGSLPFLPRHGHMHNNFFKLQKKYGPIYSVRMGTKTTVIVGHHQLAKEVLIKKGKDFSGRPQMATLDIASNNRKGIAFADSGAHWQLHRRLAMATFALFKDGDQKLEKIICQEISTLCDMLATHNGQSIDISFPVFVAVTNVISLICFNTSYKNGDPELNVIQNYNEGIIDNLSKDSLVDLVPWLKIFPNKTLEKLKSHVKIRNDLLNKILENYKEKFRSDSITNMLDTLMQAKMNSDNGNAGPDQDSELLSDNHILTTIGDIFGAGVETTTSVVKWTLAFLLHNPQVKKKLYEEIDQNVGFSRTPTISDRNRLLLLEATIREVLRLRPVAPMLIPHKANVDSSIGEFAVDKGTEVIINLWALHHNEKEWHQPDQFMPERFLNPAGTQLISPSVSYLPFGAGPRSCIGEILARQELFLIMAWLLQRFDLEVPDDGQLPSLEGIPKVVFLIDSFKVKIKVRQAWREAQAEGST
It counts as functional.

The species entered for series [11] is Rattus norvegicus. Format: functional. Conditions: dose 100 mg/kg; route oral. The source holds these as a separate data set.
The species entered for series [12] is Rattus norvegicus. It counts as functional. Conditions: dose 30 mg/kg.
The target in series [13] is T1, Cytochrome P450 11B2, mitochondrial. This is another data set of the same source.
Series [14] concerns the target T3, Aromatase (Rattus norvegicus, UniProt P22443).
T3 sequence (P22443 whole entry): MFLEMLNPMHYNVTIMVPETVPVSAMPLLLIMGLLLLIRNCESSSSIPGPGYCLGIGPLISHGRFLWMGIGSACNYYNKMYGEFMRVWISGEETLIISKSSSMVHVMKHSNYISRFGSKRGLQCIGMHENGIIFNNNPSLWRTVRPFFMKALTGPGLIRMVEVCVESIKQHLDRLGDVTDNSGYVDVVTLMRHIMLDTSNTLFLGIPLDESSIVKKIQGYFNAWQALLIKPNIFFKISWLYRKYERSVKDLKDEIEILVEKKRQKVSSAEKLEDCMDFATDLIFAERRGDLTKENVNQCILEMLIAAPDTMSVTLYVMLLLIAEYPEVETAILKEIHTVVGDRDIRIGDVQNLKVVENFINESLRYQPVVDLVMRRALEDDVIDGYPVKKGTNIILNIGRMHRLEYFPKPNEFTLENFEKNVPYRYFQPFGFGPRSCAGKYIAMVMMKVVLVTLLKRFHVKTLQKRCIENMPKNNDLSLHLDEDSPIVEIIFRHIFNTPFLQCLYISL
Conditions: in vivo, po.

For series [15], the species on record is Rattus norvegicus. It counts as functional. Particulars: dose 12.5 mg/kg.
Series [16] has as its target T3, Aromatase. Conditions: in vivo, po. The source holds these as a separate data set.
For series [17], the species on record is Rattus norvegicus. Format: functional. Conditions: dose 125 mg/kg; route oral.
The species named for series [18] is Rattus norvegicus. Format: functional. Conditions: dose 15.6 mg/kg; route oral.
Series [19] is filed under the species Rattus norvegicus. It counts as functional. This is another data set of the same source.
The species named for series [20] is Rattus norvegicus. Format: functional. Conditions: dose 125 mg/kg; route oral. This is another data set of the same source.
For series [21], the species on record is Rattus norvegicus. Format: functional. Conditions: dose 62.5 mg/kg.
Series [22] is filed under the species Rattus norvegicus. It counts as functional. Particulars: dose 125 mg/kg; route oral. The source holds these as a separate data set.
For series [23], the species on record is Rattus norvegicus. It counts as functional. Particulars: dose 62.5 mg/kg; route oral.
Series [24] is filed under the species Rattus norvegicus. It counts as functional. Particulars: dose 25.6 mg/kg; route oral.
The species entered for series [25] is Rattus norvegicus. Format: functional. Particulars: dose 62.5 mg/kg; route oral. The source holds these as a separate data set.
For series [26], the species on record is Rattus norvegicus. It counts as functional. Particulars: dose 15.6 mg/kg; route oral. This is another data set of the same source.
The species entered for series [27] is Rattus norvegicus. It counts as functional. Particulars: dose 15.6 mg/kg.
For series [28], the species on record is Rattus norvegicus. It counts as functional. Conditions: dose 31.3 mg/kg; route oral.
For series [29], the species on record is Rattus norvegicus. Format: functional. Conditions: dose 31.3 mg/kg.
The species named for series [30] is Rattus norvegicus. Format: functional. Conditions: dose 62.5 mg/kg; route oral. This is another data set of the same source.
The species named for series [31] is Rattus norvegicus. Format: functional. Conditions: dose 31.3 mg/kg. This is another data set of the same source.
Series [32] is filed under the species Rattus norvegicus. It counts as functional. Particulars: dose 31.3 mg/kg; route oral. This is another data set of the same source.
For series [33], the species on record is Rattus norvegicus. Format: functional. Particulars: dose 31.3 mg/kg; route oral. The source holds these as a separate data set.
The species entered for series [34] is Rattus norvegicus. It counts as functional. Conditions: dose 62.5 mg/kg; route oral. This is another data set of the same source.
In series [35] the target is T2, Steroid 17-alpha-hydroxylase/17,20 lyase. It counts as functional. The source holds these as a separate data set.
Series [36] has as its target T1, Cytochrome P450 11B2, mitochondrial. This is another data set of the same source.
The species named for series [37] is Rattus norvegicus. Format: functional. Conditions: dose 15.6 mg/kg. This is another data set of the same source.
Series [38] addresses T1, Cytochrome P450 11B2, mitochondrial. The source holds these as a separate data set.

Structures are written as SMILES.

Usually IC50 stands for the concentration at which inhibition is half-maximal.

`CCC1(c2ccc(N)cc2)CCC(=O)NC1=O` (stereo unspecified) [AMINOGLUTETHIMIDE]: the Response in [1] is recorded as 4.25%; in series [2] it was 66.6%; in [5], 22.2%; in [7], 4.1%; in series [9], 91.6%; in series [11], 11.2%. In addition, the figures for the No. of tumors in series [3] and in series [6] were 24 and 18, respectively. For the same molecule, the IC50 in series [4] is 110 µM; in [10], 60 µM. Further, the New tumors in series [8] stood at 5; in series [12], 4.
`Nc1ccc(C23CC2C(=O)N(CC2CCCCC2)C3=O)cc1` (stereo in doubt; (+)-1h): the IC50 in series [13] and in [10] was > 34 µM each time. The same molecule came in with an ED in series [14] of 1 mg/kg.
In the case of `Nc1ccc(C23CC2C(=O)N(CC2CCCCC2)C3=O)cc1` (stereo unspecified), the New tumors in series [15] worked out at 0; in series [21], 0; in series [29] it was 3; in [37], 3. Moreover, the ED in [16] was determined as 1.5 mg/kg. The Response in [17] was 5%; in [18], 17.4%; in series [20] it was 0%; in series [22] it was 82.6%; in series [23] it was 91.6%; in [24], 4.3%. Moreover, the Response is 4.2% in series [25]; 78.3% in [26]; 30% in series [28]; 55% in series [32]; 15% in [33]; 4.1% in series [34]. The No. of tumors in series [19] came out at 23; in series [27], 23; in series [30], 24; in [31], 20. In addition, the IC50 in [35] and in series [36] was > 330 µM each time.
`Nc1ccc(C23CC(C2)C(=O)N(C2CCCCC2)C3=O)cc1`: the ED in [16] is 0.3 mg/kg. For the same molecule, the IC50 in [38] and in series [35] was 140 µM each time.

Source of the values: ChEMBL document CHEMBL1125660, “Synthesis and aromatase inhibitory activity of novel 1-(4-aminophenyl)-3-azabicyclo[3.1.0]hexane- and -[3.1.1]heptane-2,4- diones” (J Med Chem, 1991).
